How the values were obtained:
[1] = tested on: NIH3T3, Stat3-null MEFs (Stat3−/−), HPDEC, TE71; test: Viability and growth (CyQuant, trypan blue exclusion), cells without aberrant Stat3; format: cell-based, mouse, human; details: up to 200 μM
Text: (§1) Aberrant Stat3 promotes malignant cell proliferation, survival and malignant transformation (10, 20, 42). Given that S3I201.1066 disrupts Stat3 activation, we asked the question whether this agent is able to selectively decrease the viability and growth of malignant cells that harbor aberrant Stat3 activity.

NIH3T3/v-Ras = test: Soft-agar colony formation assay; format: cell-based, mouse; details: concentrations that inhibit Stat3
Protocol: Colony formation assays were carried out in 6-well dishes, as described previously (16,37). Briefly, each well contained 1.5 ml of 1% agarose in Dulbeco's modified Eagle's medium as the bottom layer and 1.5 ml of 0.5% agarose in Dulbeco's modified Eagle's medium containing 4000 or 6000 NIH3T3/v-Src or NIH3T3/v-Ras fibroblasts, respectively, as the top layer. Treatment with S3I201.1066 was initiated 1 day after seeding cells by adding 80 μl of medium with or without S3I20.1.1066, and repeating every 3 days, until large colonies were evident. Colonies were quantified by staining with 20 μl of 1 mg/ml crystal violet, incubating at 37° C. overnight, and counting the next day under phase contrast microscope.

NIH3T3/v-Ras fibroblasts = test: Wound healing assay for migration; format: cell-based, mouse; details: same treatment conditions
Text: Wounds were made using pipette tips in monolayer cultures of cells in six-well plates. […] The migration of cells was visualized at a 10× magnification using an Axiovert 200 Inverted Fluorescence Microscope (Zeiss, Göttingen Germany), with pictures taken using a mounted Canon Powershot A640 digital camera (Canon USA, Lake Success, N.Y.). Cells that migrated into the denuded area were quantified. Mice and in vivo tumor studies-Six-week-old female athymic nude mice were purchased from Harlan and maintained in the institutional animal facilities approved by the American Association for Accreditation of Laboratory Animal Care. Athymic nude mice were injected subcutaneously in the left flank area with 5×10^6 human breast cancer MDA-MB-231 cells in 100 μL of PBS. After 5 to 10 days, tumors of a diameter of 3 mm were established. […] Tumor volume was calculated according to the formula V=0.52×a^2×b, where a, smallest superficial diameter, b, largest superficial diameter.

Stat3:Stat3 complex = target: T1, Stat3:Stat3 complex (Mus musculus, UniProt P42227); test: EMSA selectivity, nuclear extracts of EGF-stimulated NIH3T3/hEGFR, hSIE probe; format: biochemical
T1 construct: endogenous in cells; host or cells: EGF-stimulated NIH3T3/hEGFR mouse fibroblasts (nuclear extract)
Protocol: (§2) Nuclear extract preparations and electrophoretic mobility shift assay (EMSA) were carried out as previously described (28,33). […] Except where indicated, nuclear extracts were pre-incubated with compound for 30 min at room temperature prior to incubation with the radiolabeled probe for 30 min at 30° C. before subjecting to EMSA analysis.

Stat1:Stat1 complex = target: T2, Stat1:Stat1 complex (Mus musculus, UniProt P42225); test: as above; format: biochemical
T2 construct: endogenous in cells; host or cells: EGF-stimulated NIH3T3/hEGFR mouse fibroblasts (nuclear extract)
T2 sequence (P42225 2-749 limits assumed): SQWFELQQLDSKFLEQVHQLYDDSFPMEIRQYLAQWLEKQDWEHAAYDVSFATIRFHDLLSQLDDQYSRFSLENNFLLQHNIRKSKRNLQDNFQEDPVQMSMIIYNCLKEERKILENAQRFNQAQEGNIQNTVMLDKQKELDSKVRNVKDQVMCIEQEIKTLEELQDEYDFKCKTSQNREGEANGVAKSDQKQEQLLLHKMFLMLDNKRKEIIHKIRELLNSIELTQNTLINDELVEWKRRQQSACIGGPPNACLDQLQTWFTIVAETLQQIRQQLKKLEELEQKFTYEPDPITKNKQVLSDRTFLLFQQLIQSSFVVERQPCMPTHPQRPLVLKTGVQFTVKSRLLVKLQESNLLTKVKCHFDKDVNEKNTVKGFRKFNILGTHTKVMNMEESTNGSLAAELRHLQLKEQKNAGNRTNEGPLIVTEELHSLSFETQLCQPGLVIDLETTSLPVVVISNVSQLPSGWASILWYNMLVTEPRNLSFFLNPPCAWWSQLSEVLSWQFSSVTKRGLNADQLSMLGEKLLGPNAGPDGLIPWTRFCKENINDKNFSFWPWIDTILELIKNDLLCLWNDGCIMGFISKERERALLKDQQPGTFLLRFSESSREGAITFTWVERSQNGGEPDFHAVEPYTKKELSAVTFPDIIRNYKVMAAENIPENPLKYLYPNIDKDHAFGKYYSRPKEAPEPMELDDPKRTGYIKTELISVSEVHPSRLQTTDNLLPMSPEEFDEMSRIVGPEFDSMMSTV
Protocol: as §2

Stat1:Stat3 complex = target: T3, Stat1:Stat3 complex (Mus musculus, UniProt P42227); test: as above; format: biochemical
T3 construct: endogenous in cells; host or cells: EGF-stimulated NIH3T3/hEGFR mouse fibroblasts (nuclear extract)
Protocol: as §2

Stat3 = test: Intracellular Stat3 activation: EMSA of nuclear extracts from treated NIH3T3/v-Src, Panc-1 and MDA-MB-231 cells; format: cell-based, mouse, human; details: 50 μM, 24 h, Panc-1, MDA-MB-231
Protocol: Nuclear extract preparations and electrophoretic mobility shift assay (EMSA) were carried out as previously described (28,33). The ^32P-labeled oligonucleotide probes used were hSIE (high affinity sis-inducible element from the c-fos gene, m67 variant, 5′[…]; SEQ ID NO:5) that binds Stat1 and Stat3 (34) and MGFe (mammary gland factor element from the bovine β-casein gene promoter, 5′-[…]; SEQ ID NO:6) for Stat1 and Stat5 binding (35,36). Except where indicated, nuclear extracts were pre-incubated with compound for 30 min at room temperature prior to incubation with the radiolabeled probe for 30 min at 30° C. before subjecting to EMSA analysis. Bands corresponding to DNA-binding activities were scanned and quantified for each concentration of compound using ImageQuant and plotted as percent of control (vehicle) against concentration of compound, from which the IC50 values were derived, as previously reported (37).
Stat3 is constitutively activated in a variety of malignant cells, including human breast and pancreatic cancer cells (9, 10, 20).
Twenty-four hours after treatment, nuclear extracts were prepared from cells and subjected to Stat3 DNA-binding assay in vitro using the radiolabeled hSIE probe and analyzed by EMSA.

NIH3T3 = test: CyQuant cell viability; format: cell-based, mouse
Text: as §1

[2] = tested on: Stat3-null MEFs (Stat3−/−); test: CyQuant cell viability; format: cell-based, mouse
Text: as §1

T1 sequence (P42227 2-770 limits assumed, one chain of several): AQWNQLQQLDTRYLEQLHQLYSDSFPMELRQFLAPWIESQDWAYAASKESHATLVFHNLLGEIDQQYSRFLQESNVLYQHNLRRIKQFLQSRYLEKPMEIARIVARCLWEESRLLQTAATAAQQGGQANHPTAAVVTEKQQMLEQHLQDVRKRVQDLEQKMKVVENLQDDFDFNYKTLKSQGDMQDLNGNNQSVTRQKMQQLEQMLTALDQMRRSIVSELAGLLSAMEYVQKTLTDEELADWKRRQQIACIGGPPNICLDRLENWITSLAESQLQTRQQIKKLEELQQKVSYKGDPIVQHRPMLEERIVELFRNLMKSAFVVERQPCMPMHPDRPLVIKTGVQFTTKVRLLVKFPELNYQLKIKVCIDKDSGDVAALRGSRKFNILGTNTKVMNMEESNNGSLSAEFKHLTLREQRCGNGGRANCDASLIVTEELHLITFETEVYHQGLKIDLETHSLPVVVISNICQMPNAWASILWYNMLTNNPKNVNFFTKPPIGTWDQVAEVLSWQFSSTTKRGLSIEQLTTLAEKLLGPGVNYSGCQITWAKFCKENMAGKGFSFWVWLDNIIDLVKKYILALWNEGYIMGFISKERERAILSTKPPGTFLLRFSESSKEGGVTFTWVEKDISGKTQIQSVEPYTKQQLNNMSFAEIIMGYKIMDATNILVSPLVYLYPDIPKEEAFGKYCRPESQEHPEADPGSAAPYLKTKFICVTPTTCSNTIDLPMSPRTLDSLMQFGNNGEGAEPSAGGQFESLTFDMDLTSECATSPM
T3 sequence (P42227 2-770 limits assumed, one chain of several): as above

## Cc1ccc(S(=O)(=O)N(C)CC(=O)N(Cc2ccc(C3CCCCC3)cc2)c2ccc(C(=O)O)c(O)c2)cc1 [S3I-201.1066]
[1]
  viability and growth: not significantly altered
NIH3T3/v-Ras
  soft-agar growth: minimal effect
NIH3T3/v-Ras fibroblasts
  migration: minimally affected
Stat3:Stat3 complex; 50 μM
  effect on Stat3:Stat3 complex with hSIE probe: significantly disrupted
Stat3:Stat3 complex; 100 μM
  effect on Stat3:Stat3 complex with hSIE probe: completely disrupted
Stat1:Stat1 complex; 50 μM
  inhibition of Stat1:Stat1 complex: no significant inhibition
Stat1:Stat1 complex; 100 μM
  inhibition of Stat1:Stat1 complex: moderate inhibition
Stat1:Stat1 complex; 200 μM
  inhibition of Stat1:Stat1 complex: complete inhibition
Stat1:Stat3 complex; 50 μM
  effect on Stat1:Stat3 complex: similarly repressed
Stat1:Stat3 complex; 100 μM
  effect on Stat1:Stat3 complex: completely disrupted
Stat3
  constitutive Stat3 activation in treated cells: significant inhibition
NIH3T3
  derived IC60 values, viability: > 200 μMm
[2]
  derived IC60 values, viability: > 200 μMm

Reference: patent publication US8895746B2 (University of Central Florida Research Foundation, Inc., priority 2009, dated 2014)
